Laboratory results taken from patent US20250296960A1, “PEPTIDE COMPOSITIONS AND METHODS OF USE THEREOF” (priority 2022, published 2025).
Read-outs that look alike come from different tables or passages of the source. Numbered stars: 1 amine (or outer) side, 2 acyl side, 3 side chain; on linkers, the order of the positions; unused ones are H or OH. Square brackets hold non-standard residues; d marks the D form. Side chains are listed from the residue outwards. Peptide text beside a SMILES is read from it. * marks the point of attachment. X1 = O=C(O)CCCCCCCCCCCCCCCCC(=O)N[C@@H](CCC(=O)NCCOCCOCC(=O)NCCOCCOCC(=O)NCCN1C(=O)CC(*)C1=O)C(=O)O; Biotin = O=C1N[C@H]2[C@H](CS[C@H]2CCCCC(=O)*)N1; C18 diacid = O=C(O)CCCCCCCCCCCCCCCCC(=O)*; γGlu = O=C(O)[C@H](CCC(=O)[*:2])N[*:1]; AEEA = NCCOCCOCC(=O)O; Aib = CC(C)(N)C(=O)O

Tests used:
[1] = Intestinal absorption / PK after intraduodenal administration of oral formulation in rats, serum LC-MS/MS; settings: rat, in vivo, 300 nmol/kg
Method: This study was conducted to evaluate the intestinal absorption of peptides following enteral administration of oral pharmaceutical formulations. The pharmaceutical formulation was administered in a form of suspensions by intraduodenal (ID) injection in rats. SEQ ID_87, 89 and 90 was accurately weighed and dissolved in 10 mM PBS containing polysorbate 80 (pH 7.4, vehicle I). The mixture was vortexed for 5 min to get a clear solution. Then, 2.5 mL of vehicle was added to the mixture and vortexed for 30 min to get homogenous opaque suspension. The composition of Vehicle II was sodium chenodeoxycholate, and propyl gallate in polysorbate 80 in PBS. The animals were not fasted prior to dosing. 0.2˜ 0.4 mL of whole blood was taken from vein at each time point (0, 0.167, 0.5, 1, 2, 4, 8, 24, and 48 hrs after IV or ID administration). The collected whole blood was incubated at room temperature for 20 min and tubes were centrifugated at 13,000 rpm for 10 min at 4° C. The resulting serum 0.1˜ 0.2 mL was transferred into the tube and stored at −70° C. until analysis. The concentrations of peptides in serum were determined by LC-MS/MS analysis. PK parameters were analyzed by non-compartmental analysis using Phoenix WinNonlin 5.0.1. software (Pharsight Corporation, Mountain View, CA, USA).

human GIPR = target: T1, human GIPR (Homo sapiens, UniProt P48546); experiment: cAMP assay (HitHunter cAMP) in GIPR-expressing CHO-K1 cells (GIPR+ cells); format: cell-based
T1 construct: host or cells: CHO-K1
T1 sequence (P48546 22-466): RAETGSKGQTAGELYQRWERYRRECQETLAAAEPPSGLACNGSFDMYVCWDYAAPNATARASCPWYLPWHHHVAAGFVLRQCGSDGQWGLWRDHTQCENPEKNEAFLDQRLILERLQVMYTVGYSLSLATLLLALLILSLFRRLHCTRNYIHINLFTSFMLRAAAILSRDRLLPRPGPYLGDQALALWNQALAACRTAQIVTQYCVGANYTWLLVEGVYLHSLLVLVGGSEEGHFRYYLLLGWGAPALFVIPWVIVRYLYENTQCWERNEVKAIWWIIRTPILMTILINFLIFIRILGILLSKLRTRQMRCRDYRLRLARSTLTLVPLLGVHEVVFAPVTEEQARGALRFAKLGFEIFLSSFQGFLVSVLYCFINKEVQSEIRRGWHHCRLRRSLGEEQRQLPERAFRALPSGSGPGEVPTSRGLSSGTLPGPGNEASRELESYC
Method: (§1) The cells were seeded in a 96-well plate at 7×10^3 cells/well using cell plate reagent and incubated the cells overnight at 37° C. and 5% CO2. To perform the cAMP detection assay, cell plating reagent were replaced with the cAMP Assay buffer. Each of the wells was then treated with the diluted peptide and incubated for 30 minutes under conditions of a temperature of 37° C. in a CO2 incubator.
(§2) After the incubation, cAMP Antibody reagent and Working cAMP detection solution to all wells. Incubate the plate for 1 hour at Room temperature in the dark. Then, cAMP Solution A was added and incubated for 3 hours at room temperature in the dark. Subsequently, the luminescence was measured using the microplate reader device.

[2] = Body weight loss in normal C57BL/6 mice, subcutaneous dosing; format: in vivo; settings: normal mice; 20 nmol/kg QD; after 48 or 72 hours
Method: To confirm the therapeutic effect of the peptide in vivo, polypeptides were administered to mice to measure changes in body weight. […] The peptides were delivered at 0.02% polysorbate 80 (PS80) in PBS and dosing volume was 10 mL/kg. Body weight was monitored 6 h, QD.
To confirm the therapeutic effect of the peptide in obesity, diabetes, or NASH, polypeptides were administered to mice to measure changes in food intake, blood glucose and body weight. […] In addition, a NASH animal model was prepared by feeding a high fat, high fructose, high cholesterol diet to normal C57BL/6 mice (approximately 6 weeks old) for approximately 21 weeks, and increasing the body weights of the mice to approximately 50 g on average. Thereafter, polypeptides were administered by subcutaneous injection at dose of 20 nmol/kg once every other day for 2 weeks. Body weight and food intake were measured once every other day given points of time. After 2 weeks of treatment period, mice were sacrificed, then liver weight, hepatic triglyceride, and NASH related biomarkers were measured.
DD01 administered at 40 nmol/kg, s.c. Q2D as positive control was delivered at 0.02% PS80 in PBS and dosing volume was 10 mL/kg. Body weight was monitored QD for 4 days.
The peptides were delivered at 0.02% PS80 in PBS and dosing volume was 10 mL/kg. Food intake, blood glucose, and body weight changes were monitored QD.

human GLP-1R = target: T2, human GLP-1R (Homo sapiens, UniProt P43220); experiment: cAMP assay (HitHunter cAMP) in GLP-1R-expressing CHO-K1 cells (GLP-1R+ cells); format: cell-based
T2 construct: host or cells: CHO-K1
Method: as §1, §2

human GCGR = target: T3, human GCGR (Homo sapiens, UniProt P47871); experiment: cAMP assay (HitHunter cAMP) in GCGR-expressing CHO-K1 cells (GCGR+ cells); format: cell-based
T3 construct: host or cells: CHO-K1
Method: as §1, §2

[3] = Table 19, normalised to activity at GLP-1R
[4] = Table 24, ratio of EC50 of native ligand over peptide

T3 sequence (P47871 26-477): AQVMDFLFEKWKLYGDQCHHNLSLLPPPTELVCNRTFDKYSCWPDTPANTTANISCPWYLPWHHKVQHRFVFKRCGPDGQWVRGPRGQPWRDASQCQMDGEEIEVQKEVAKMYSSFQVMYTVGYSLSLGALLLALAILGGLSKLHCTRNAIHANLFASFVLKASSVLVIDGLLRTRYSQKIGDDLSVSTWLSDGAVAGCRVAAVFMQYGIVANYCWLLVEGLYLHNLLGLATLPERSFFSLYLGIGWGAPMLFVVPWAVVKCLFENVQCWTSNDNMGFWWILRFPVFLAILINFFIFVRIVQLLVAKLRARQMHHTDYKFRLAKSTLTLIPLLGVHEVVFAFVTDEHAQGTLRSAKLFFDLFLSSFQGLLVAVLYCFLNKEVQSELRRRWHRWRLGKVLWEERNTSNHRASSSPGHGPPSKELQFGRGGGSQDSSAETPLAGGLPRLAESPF
T2 sequence (P43220 24-463): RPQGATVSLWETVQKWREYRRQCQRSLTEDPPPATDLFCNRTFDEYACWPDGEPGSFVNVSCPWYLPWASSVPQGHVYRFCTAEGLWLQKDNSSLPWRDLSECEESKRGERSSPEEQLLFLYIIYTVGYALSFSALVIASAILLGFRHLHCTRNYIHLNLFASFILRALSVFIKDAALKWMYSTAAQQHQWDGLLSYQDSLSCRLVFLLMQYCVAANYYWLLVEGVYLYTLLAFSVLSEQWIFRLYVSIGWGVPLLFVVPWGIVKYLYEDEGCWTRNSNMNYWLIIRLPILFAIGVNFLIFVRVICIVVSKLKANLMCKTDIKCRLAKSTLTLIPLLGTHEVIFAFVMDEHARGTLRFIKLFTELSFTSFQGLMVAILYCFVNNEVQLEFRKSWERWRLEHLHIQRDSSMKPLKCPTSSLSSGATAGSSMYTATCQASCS

CSCC[C@H](NC(=O)[C@H](CCCCNC(=O)CCCC[C@@H]1SC[C@@H]2NC(=O)N[C@@H]21)NC(=O)[C@H](Cc1ccc(O)cc1)NC(=O)[C@H](CC(=O)O)NC(=O)[C@H](CC(C)C)NC(=O)[C@H](CC(C)C)NC(=O)[C@H](CCCCNC(=O)COCCOCCNC(=O)COCCOCCNC(=O)CC[C@H](NC(=O)CCCCCCCCCCCCCCCCC(=O)O)C(=O)O)NC(=O)[C@H](CO)NC(=O)[C@H](Cc1ccc(O)cc1)NC(=O)[C@H](CC(=O)O)NC(=O)[C@H](CO)NC(=O)[C@@H](NC(=O)[C@H](Cc1ccccc1)NC(=O)[C@@H](NC(=O)CNC(=O)[C@H](CCC(N)=O)NC(=O)C(C)(C)NC(=O)[C@@H](N)Cc1ccc(O)cc1)[C@@H](C)O)[C@@H](C)O)C(=O)N[C@@H](CCC(N)=O)C(=O)N[C@@H](CCCNC(=N)N)C(=O)N[C@@H](CC(=O)O)C(=O)N[C@@H](Cc1ccccc1)C(=O)N[C@H](C(=O)N[C@@H](CCC(N)=O)C(=O)N[C@@H](Cc1c[nH]c2ccccc12)C(=O)N[C@@H](CC(C)C)C(=O)N[C@@H](CC(C)C)C(=O)N[C@@H](CCC(=O)O)C(=O)NCC(=O)NCC(=O)N1CCC[C@H]1C(=O)N[C@@H](CO)C(=O)N[C@@H](CO)C(=O)NCC(=O)N[C@@H](C)C(=O)N1CCC[C@H]1C(=O)N1CCC[C@H]1C(=O)N1CCC[C@H]1C(=O)N[C@@H](CO)C(N)=O)C(C)C [SEQ ID NO. 87, YAibQGT FTSDY SK*LLD YB*MQR DFVQW LLEGG PSSGA PPPS] (H-Y[Aib]QGTFTSDYSK([AEEA-AEEA-γGlu-C18 diacid])LLDYK(Biotin)MQRDFVQWLLEGGPSSGAPPPS-NH2; N-terminus and C-terminus assumed)
AUC(0-inf) [1]: 1860 ng·h/mL
Cmax [1]: 290 ± 110 ng/mL
MRT inf [1]: 8.19 ± 1.92 h
Tmax [1]: 0.25 ± 0.17 h
half-life [1]: 6.17 ± 1.36 h

CSCC[C@H](NC(=O)[C@H](Cc1ccc(O)cc1)NC(=O)[C@H](CC(=O)O)NC(=O)[C@H](CC(C)C)NC(=O)[C@H](CC(C)C)NC(=O)[C@H](CCCCNC(=O)COCCOCCNC(=O)COCCOCCNC(=O)CC[C@H](NC(=O)CCCCCCCCCCCCCCCCC(=O)O)C(=O)O)NC(=O)[C@H](CO)NC(=O)[C@H](Cc1ccc(O)cc1)NC(=O)[C@H](CC(=O)O)NC(=O)[C@H](CO)NC(=O)[C@@H](NC(=O)[C@H](Cc1ccccc1)NC(=O)[C@@H](NC(=O)CNC(=O)[C@H](CCC(N)=O)NC(=O)C(C)(C)NC(=O)[C@@H](N)Cc1ccc(O)cc1)[C@@H](C)O)[C@@H](C)O)C(=O)N[C@@H](CCSC)C(=O)N[C@@H](CCC(N)=O)C(=O)N[C@@H](CCCNC(=N)N)C(=O)N[C@@H](CC(=O)O)C(=O)N[C@@H](Cc1ccccc1)C(=O)N[C@H](C(=O)N[C@@H](CCCCNC(=O)CCCC[C@@H]1SC[C@@H]2NC(=O)N[C@@H]21)C(=O)N[C@@H](Cc1c[nH]c2ccccc12)C(=O)N[C@@H](CC(C)C)C(=O)N[C@@H](CC(C)C)C(=O)N[C@@H](CCC(=O)O)C(=O)NCC(=O)NCC(=O)N1CCC[C@H]1C(=O)N[C@@H](CO)C(=O)N[C@@H](CO)C(=O)NCC(=O)N[C@@H](C)C(=O)N1CCC[C@H]1C(=O)N1CCC[C@H]1C(=O)N1CCC[C@H]1C(=O)N[C@@H](CO)C(N)=O)C(C)C [SEQ ID_89] (H-Y[Aib]QGTFTSDYSK([AEEA-AEEA-γGlu-C18 diacid])LLDYMMQRDFVK(Biotin)WLLEGGPSSGAPPPS-NH2; N-terminus and C-terminus assumed)
AUC(0-inf) ([1]; rats, single intraduodenal administration, oral formulation suspension, serum, mean ± SD, read-out: AUCinf): 2790 ng·h/mL
Cmax ([1]; rats, single intraduodenal administration, oral formulation suspension, serum, mean ± SD, read-out: Cmax): 332 ± 124 ng/mL
MRT inf ([1]; rats, single intraduodenal administration, oral formulation suspension, serum, mean ± SD, read-out: MRTinf): 9.89 ± 3.91 h
Tmax ([1]; rats, single intraduodenal administration, oral formulation suspension, serum, mean ± SD, read-out: Tmax): 0.43 ± 0.15 h
half-life ([1]; rats, single intraduodenal administration, oral formulation suspension, serum, mean ± SD, read-out: t1/2 (converted)): 7.24 ± 2.05 h

CSCC[C@H](NC(=O)[C@H](Cc1ccc(O)cc1)NC(=O)[C@H](CC(=O)O)NC(=O)[C@H](CC(C)C)NC(=O)[C@H](CC(C)C)NC(=O)[C@H](CCCCN)NC(=O)[C@H](CO)NC(=O)[C@H](Cc1ccc(O)cc1)NC(=O)[C@H](CC(=O)O)NC(=O)[C@H](CO)NC(=O)[C@@H](NC(=O)[C@H](Cc1ccccc1)NC(=O)[C@@H](NC(=O)CNC(=O)[C@H](CCC(N)=O)NC(=O)C(C)(C)NC(=O)[C@@H](N)Cc1c[nH]cn1)[C@@H](C)O)[C@@H](C)O)C(=O)N[C@@H](CCSC)C(=O)N[C@@H](CCC(N)=O)C(=O)N[C@@H](CCCNC(=N)N)C(=O)N[C@@H](CC(=O)O)C(=O)N[C@@H](Cc1ccccc1)C(=O)N[C@H](C(=O)N[C@@H](CCC(N)=O)C(=O)N[C@@H](Cc1c[nH]c2ccccc12)C(=O)N[C@@H](CC(C)C)C(=O)N[C@@H](CC(C)C)C(=O)N[C@@H](CCC(=O)O)C(=O)NCC(=O)NCC(=O)N1CCC[C@H]1C(=O)N[C@@H](CO)C(=O)N[C@@H](CO)C(=O)NCC(=O)N[C@@H](C)C(=O)N1CCC[C@H]1C(=O)N1CCC[C@H]1C(=O)N1CCC[C@H]1C(=O)N[C@@H](CO)C(=O)N[C@@H](CSC1CC(=O)N(CCNC(=O)COCCOCCNC(=O)COCCOCCNC(=O)CC[C@H](NC(=O)CCCCCCCCCCCCCCCCC(=O)O)C(=O)O)C1=O)C(N)=O)C(C)C (some centres unmarked) [5-5A] (H-H[Aib]QGTFTSDYSKLLDYMMQRDFVQWLLEGGPSSGAPPPSC(X1)-NH2; N-terminus assumed)
Activity relative to STD peptide (%), GIPR (human GIPR; Table 18): 14%
Activity relative to GLP-1 (%), GIPR (human GIPR; [3]): 2%
Relative % to native ligand, GIPR (human GIPR; [4]): 14%
Ratio vs. GLP-1R, GIPR (human GIPR; Table 25): 2
Relative % to non-lipidated peptide, GIPR (human GIPR; Table 26): 3%
Weight loss (%) [2]: 10.6 ± 1.0%
Activity relative to STD peptide (%), GLP-1R (human GLP-1R; Table 18): 673%
Activity relative to GLP-1 (%), GLP-1R (human GLP-1R; [3]): 100%
Relative % to native ligand, GLP-1R (human GLP-1R; [4]): 673%
Ratio vs. GLP-1R, GLP-1R (human GLP-1R; Table 25): 100
Relative % to non-lipidated peptide, GLP-1R (human GLP-1R; Table 26): 40%
Activity relative to STD peptide (%), GCGR (human GCGR; Table 18): 1%
Activity relative to GLP-1 (%), GCGR (human GCGR; [3]): 0%
Relative % to native ligand, GCGR (human GCGR; [4]): 1%
Ratio vs. GLP-1R, GCGR (human GCGR; Table 25): 0
Relative % to non-lipidated peptide, GCGR (human GCGR; Table 26): 1%
